What all share (assay): drug sensitivity score (DSS), CellTox Green (DSS (AUC-based score)); higher = stronger drug effect (viability inhibition or cytotoxicity); extreme values may be limits of the assay
Holding throughout (conditions): incubation time: 72 h

For test [1], the system named is HDQ-P1. The method in brief: (§1)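 The drug sensitivity score was computed from the area under the fitted dose-response curve. Breast cancer cell lines in 20 µl suspension went into 384-well plates holding compound at 5 concentrations (10-fold steps over a 10,000-fold, compound-specific range) for 72 h of incubation. CellTox Green fluorescence (485/520 nm) was read before CellTiter-Glo luminescence, the latter after 10 min at room temperature, and each plate was normalised to 0.1 % DMSO and a positive kill control.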

Test [2] concerns CAL-51. The gist of the method:
as §1

Test [3] has as its system CAL-120. The method in brief:
as §1

Test [4] concerns BT-549. The gist of the method:
as §1

Test [5] has as its system Hs578T. The gist of the method: as §1
Test [6] has as its system HCC1143. The gist of the method:
as §1

The subject of test [7] is BT-474. The gist of the method: as §1
Test [8] has as its system HCC1937. The method in brief: as §1
The test system of test [9] is MDA-MB-453. The gist of the method: as §1
Test [10] deals with DU-4475. The gist of the method: as §1

In the case of `Cc1c(Cn2c(C)nc3c(C(=O)O)cc(N4CCOCC4)cc32)cccc1C(F)(F)F`, the drug sensitivity score in test [1], in [2], in test [3], in test [4], in [5] and in test [6] was 0 throughout. Besides, the drug sensitivity score in [7], in test [8], in [9] and in test [10] was 0 each time.

Consider `CC/C(=C(\c1ccc(O)cc1)c1ccc(OCCN(C)C)cc1)c1ccccc1` [4-hydroxytamoxifen], for which the drug sensitivity score was determined as 0 in test [1]; 0 in test [2]; 1.11 in [3]; 0 in test [4]; 1.54 in test [6]; 3.8 in test [7]. Besides, the drug sensitivity score in [8] worked out at 8.17; in test [9] it was 1; in test [10], 0.

`CCCCC/C=C/C=C1/C(=O)C=C[C@@H]1C/C=C\CCCC(=O)O` [15D-PGJ2]: the drug sensitivity score in [1], in test [2], in [3], in test [4], in test [5] and in [6] was 0 throughout. In addition, the drug sensitivity score in test [7], in test [8], in test [9] and in [10] was 0 in each case.

As for `CC(=O)OC[C@H]1O[C@@H]([S-])[C@H](OC(C)=O)[C@@H](OC(C)=O)[C@@H]1OC(C)=O.CCP(CC)CC.[Au+]` [Auranofin], the drug sensitivity score in test [1] worked out at 6.27; in test [2] it was 3.46; in test [3] it was 0.776; in test [4], 4.41; in test [5], 0; in test [6], 0.33. Besides, the drug sensitivity score in [7] was 3.42; in test [8], 4.79; in test [9] it was 1.98; in [10] it was 0.

Turning to `Cc1cccc(-c2nn3c(c2-c2ccnc4ccc(C(N)=O)cc24)CCC3)n1` [Galunisertib], the drug sensitivity score in test [1], in test [2], in test [3], in [4], in test [5] and in test [6] was 0 each time. In addition, the drug sensitivity score in test [7], in [8], in test [9] and in [10] was 0 in each case.

Regarding `CS(=O)(=O)N1CCN(Cc2cc3nc(-c4cccc5[nH]ncc45)nc(N4CCOCC4)c3s2)CC1` [Pictilisib], the drug sensitivity score amounted to 0 in test [1]; 4.02 in test [2]; 0 in test [3]; 0 in [4]; 0 in test [5]; 0 in test [6]. In addition, the drug sensitivity score in test [7] was found to be 1.54; in [8], 0; in test [9], 0; in test [10], 0.

As for `O=C(NC[C@H](O)CO)c1ccncc1Nc1ccc(I)cc1F` [Pimasertib], the drug sensitivity score turned out to be 0 in test [1]; 0 in test [2]; 2.8 in [3]; 0 in test [4]; 0 in test [5]; 0 in test [6]. Further, the drug sensitivity score in test [7] came out at 2.1; in test [8] it was 0; in test [9], 0; in test [10], 9.13.

`Cn1cc(CNCC2CCN(c3ncc(C(=O)NO)cn3)CC2)c2ccccc21` [Quisinostat]: the drug sensitivity score in test [1] was 1.56; in test [2] it was 10.9; in test [3] it was 13.6; in [4] it was 0; in test [5], 13.2; in test [6], 2.18. The drug sensitivity score in test [7] is 11; in [8] it was 0; in [9] it was 0.347; in test [10], 2.71.

Turning to `CC(C)N(CCCNC(=O)Nc1ccc(C(C)(C)C)cc1)C[C@H]1O[C@@H](n2cc(Br)c3c(N)ncnc32)[C@H](O)[C@@H]1O` [SGC0946], the drug sensitivity score in [1], in test [2], in test [3], in [4], in test [6] and in [7] was 0 each time. The drug sensitivity score in [8], in test [9] and in test [10] was 0 each time.

Values taken from the supplement of paper PMC4862054.
